Test results: patent US11491146B2, “Therapeutic methods and combinations” (priority 2017, dated 2022)
Where “and” joins values, the source holds several entries; their conditions need not be identical. Identical values can stand only once. Like-named read-outs stand apart in the source and are kept apart here.

Key:
VIM2 expressing E. coli = format: cell-based
Method: (§1) The cells were cultured on 0.8 g/100 ml nutrient agar plate at pH 7.0 and 37° C. The bacterial growth medium was diluted in nutrient broth (NB) to a concentration absorbance of 1.5 at OD600 nm and incubated overnight in 10 ml capped culture tubes with shaking. An overnight culture of the bacterial strain was sub-cultured to an optical density of 0.06 at OD600 nm into the NB medium and was then seeded at max 200 μl into the wells of a 96 well microtiter plate. Samples were then incubated at 37° C. and shaken at 200 rpm for 18 h.

E. coli = assay: Cell viability assay, wild type E. coli growth; format: cell-based; settings: for relative percentage growth compared to untreated cells: E. coli
Method: as §1

VIM-2 [1] = molecular target: T1, VIM-2 (Pseudomonas aeruginosa, UniProt Q9K2N0); assay: Single dose enzymatic inhibition assay against VIM2 (nitrocefin hydrolysis); format: biochemical, P. aeruginosa; settings: for VIM2 inhibition in words: single dose, 50 μM
Method: (§2) For our biochemical assay, the blavmugene, from a clinical strain of P. aeruginosa, was expressed using the pET24a (+) vector [20]. The pET24a-VIM-2 plasmid was transformed into competent BL21 (DE3) E. coli cells. The cells were plated onto an LB-agar plate with kanamycin (25 μg/mL) and incubated overnight at 37° C. A single colony was used to inoculate 50 mL of LB, containing 25 μg/mL kanamycin, and the culture was shaken overnight at 37° C. From the overnight culture, 10 mL were transferred to 4×1 L LB medium containing 25 μg/mL kanamycin. The cultures were grown at 37° C. until the optical density (OD600 nm) reached 0.6-0.8, at which point protein production was induced with IPTG (0.5 mM) and ZnC12 (100 μM). The temperature was reduced to 20° C., and the cells were shaken for an additional 18 h. The cultures were harvested by centrifugation (8K×g) for 10 min at 4° C. The resulting pellets were re-suspended with 25 mL of 50 mM HEPES, pH 7.5, containing 500 mM NaCl (buffer B). The cells were lysed with three passes through a French Press. The lysate was centrifuged (15 Kxg) for 30 min at 4° C. The supernatant was dialyzed against 2 L of 50 mM HEPES, pH 7.5 (buffer A), for 4 h. Buffer A was used to equilibrate a 25 mL Q-Sepharose column using an FPLC. The sample was loaded onto the column, and proteins were eluted with a linear gradient 0-500 mM NaCl with buffer B. Fractions containing VIM2, determined by SDS-PAGE, were pooled and concentrated to 2-3 mL in an Amicon ultraconcentrator equipped YM-10 membrane. Further purification was conducted with a Sephacryl S-200 gel filtration column using 50 mM HEPES, pH 7.5, containing 150 mM NaCl.

[2] = Cytotoxicity by MTT cell proliferation assay in HEK293; settings: human, HEK293 cells
Method: (§3) Human embryonic kidney cell line (HEK293) was grown in DMEM (Dulbecco's modifications of eagle's medium with L-glutamine & 4.5 G/L glucose) supplemented with fetal bovine serum 100 units/ml of penicillin G and 0.1 mg/ml of streptomycin sulfate in a humidified atmosphere of a 5% CO2 at 37° C.
(§4) Cell proliferations were measured by counting viable cells by using the 3(4,5dimethylthiazol-2-yl)-2,5-diphenyltetrazolium bromide (MTT) (Sigma-Aldrich, St. Louis, Mo.) colorimetric dye-reduction assay. […] After 72 hrs, 10 μl of MTT (5 mg/ml) dye was added to each well and the plates were incubated for 4 hours at 37° C. in 5% CO2 incubator. After centrifuge with 1,500 rpm/10 mins, the supernatant was removed and 200 μl of dimethyl sulfoxide (DMSO) was added and the plates were gently shaken to solubilize the formed formazan for 30 min. The absorbance was measured using a micro-plate reader at wave length 590 nm. The CC50 were obtained by fitting the data to a sigmoidal dose-response equation using Graphpad Prism 6.

VIM-2 [3] = molecular target: T1, VIM-2; assay: Dose response enzymatic inhibition assay and inhibition constant against VIM2; format: biochemical, P. aeruginosa; settings: for Ligand efficiency (LE): LE = −1.38 log (Ki)/N, N = number of heavy atoms
Method: as §2
The relative change in absorbance was evaluated as percentage inhibition and the IC50 was determined by fitting the data to a sigmoidal dose-response curve. The enzyme inhibition constant (Ki) was derived from initial-velocity measurements by nonlinear regression using competitive-inhibition enzyme kinetics using Graphpad Prism 6.

HEK293 cells [4] = assay: Cytotoxicity by MTT cell proliferation assay in HEK293; settings: HEK293 CC50 ratio
Method: as §3, §4

HDACs = settings: earlier study; cited from earlier work
VIM-2 expressing E. coli = assay: EC50* for restoring amoxicillin growth inhibition in VIM-2 expressing E. coli; format: cell-based; settings: in the presence of 50 μM amoxicillin
Method: as §1
The bacterial culture was prepared as described above. […] The mixing of the bacterial culture plate were then incubated in a 37° C. […] shaken incubator at 200 rpm for 18 h before measuring their optical density at 600 nm.

HEK293 cells [5] = test system: HEK293 cells
Method: as §3, §4

VIM-2 [6] = molecular target: T1, VIM-2; settings: literature value; read-out: IC50 in parenthesis reported from ref. 3; cited from earlier work
[7] = 50 μM compound, 5 nM VIM-2, 10 μM nitrocefin, 30 mins
[8] = 5 nM VIM-2, 10 μM nitrocefin, read-out: IC50
[9] = competitive-inhibition fit, nitrocefin substrate, read-out: Ki

Compound	relative percentage growth compared to untreated cells (VIM2 expressing E. coli; Amox(+), 50 μM amoxicillin)	relative percentage growth compared to untreated cells (E. coli; Amox(+), 50 μM amoxicillin)	% Inhibition at 50 μM (VIM-2 [1]; [7])	inhibition at 50 µM (VIM-2 [1]; [7])	relative percentage growth compared to untreated cells (VIM2 expressing E. coli; Amox(−))	relative percentage growth compared to untreated cells (E. coli; Amox(−))	VIM2 inhibition in words (VIM-2 [1])	other results
CC1(C)S[C@@H]2[C@H](NC(=O)[C@H](N)c3ccc(O)cc3)C(=O)N2[C@H]1C(=O)O [Amox, amoxicillin]	77%	3.6%	–	–	–	–	–	growth inhibition by amoxicillin alone (E. coli; wild type E. coli, 50 μM): over 96%
O=C(O)[C@H]1/C(=C/CO)O[C@@H]2CC(=O)N21 [Clavulanate]	57%	2.9%	15%	≤ 25%	93%	86%	–	–
O=C(NC(C(=O)O)c1ccccc1)c1ccc(=O)n(O)c1 (stereo not drawn) [Compound 1, 2-(1-Hydroxy-6-oxo-1,6-dihydropyridine-3-carboxamido)-2-phenylacetic acid]	–	–	–	12%	–	–	Poor inhibition	–
On1ccccc1=S [Compound 2b, 1-Hydroxypyridine-2-thione]	–	–	–	–	–	–	–	CC50 at 72 h [2]: 0.014 µM; inhibition at 50 µM (VIM-2 [1]): 93%; growth inhibition activity on its own (VIM2 expressing E. coli; compound alone): over 89%; growth inhibition activity on its own (E. coli; wild type E. coli, compound alone): over 89%; IC50 (VIM-2 [3]): 0.908 µM; Ki (VIM-2 [3]): 0.217 µM
O=C(O)c1cccc(=S)n1O [Compound 3, 1-Hydroxypyridine-2(1H)-thiones-6-carboxylic acid]	3.2%	3.6%	98%	–	61%	77%	–	fold change in cytotoxicity from parent compound 2 (HEK293 cells [4]): 6900 fold; range selectivity among all eleven HDACs (HDACs): ~5000 fold; EC50 (VIM-2 expressing E. coli): 0.1 µM and 0.11 µM; antibacterial activity on their own, in words (VIM2 expressing E. coli): moderate antibacterial activity; synergistic growth inhibition with amoxicillin (VIM2 expressing E. coli): over 90%; antibacterial activity on their own, in words (E. coli; wild type E. coli): moderate antibacterial activity; IC50 (VIM-2 [3]; [8]): 0.27 µM; Ligand efficiency (LE) (VIM-2 [3]): 0.99; Ki (VIM-2 [3]; [9]): 0.013 µM; IC50 (VIM-2 [3]; read-out: IC50): 0.27 µM; Ki (VIM-2 [3]; read-out: Ki): 0.013 µM; CC50 (HEK293 cells [5]): 97 µM
O=C(N[C@@H](C(=O)O)c1ccccc1)c1cccc(=S)n1O [Compound 5]	–	–	34%	–	–	–	Moderate inhibitory activities	fold loss of Ki relative to compound 3 (VIM-2 [3]): 576 fold; IC50 (VIM-2 [3]; [8]): 67.9 µM; Ligand efficiency (LE) (VIM-2 [3]): 0.34; Ki (VIM-2 [3]; [9]): 7.5 µM
C[C@H](CS)C(=O)N1CCC[C@H]1C(=O)O [L-Captopril]	–	–	98%	–	–	–	–	IC50 (VIM-2 [6]): 4.4 µM; antibacterial activity on their own, in words (VIM2 expressing E. coli): moderate antibacterial activity; synergistic growth inhibition with amoxicillin (VIM2 expressing E. coli): over 90%; antibacterial activity on their own, in words (E. coli; wild type E. coli): moderate antibacterial activity
O=C(CCCCCCC(=O)Nc1ccccc1)NO [SAHA]	60%	3.6%	29%	–	79%	83%	Poor inhibition	–
C[C@]1(Cn2ccnn2)[C@H](C(=O)O)N2C(=O)C[C@H]2S1(=O)=O [Tazobactam]	–	–	25%	≤ 25%	–	–	–	–
Zinc pyrithione [Compound 2a]	–	–	15%	–	–	–	–	–
